Laboratory results published in patent publication EP0183271B1, “Lysin derivative and proteinase inhibitor” (Okamoto, Shosuke, priority 1984, dated 1986).
pIC50: −log10 of the molar value. Structures can show the parent of a compound that is named as a salt. Square brackets hold non-standard residues; d marks the D form. Peptide text beside a SMILES is read from it. * marks the point of attachment. dPhg = N[C@@H](C(=O)O)c1ccccc1; Tos = Cc1ccc(S(=O)(=O)*)cc1

Experiments:
Plasmin [1] = molecular target: T1, Plasmin (Homo sapiens, UniProt P00747); assay: biochemical; details: substrate S-2251
Protocol: (§1) (1) Evaluation of Antiplasmin Activity
(ii) Determination of prevention activity for S-2251 decomposition
An inhibitor sample is dissolved in a 0.05 M Tris-hydrochloric acid buffer solution (pH = 7.4) to make the total volume to 400 µl. To this solution, 50 pl of a 3 mM S-2251 solution is added and the mixture is incubated at a temperature of 37°C for 5 minutes in a constant temperature bath. Then, 50 pl of a 0.2 casein unit/ml human plasmin is added and the mixture is incubated at a temperature of 37°C for 4 minutes. Thereafter, the reaction is stopped by adding 50 µl of 50% acetic acid.
The absorbance of p-nitroaniline formed in the reaction mixture is determined at 405 nm. Thus, the concentration I50 of the inhibitor sample, at which the absorbance is one half (i.e., 1/2) of that obtained in the absence of the inhibitor, is determined.

Plasmin [2] = molecular target: T1, Plasmin; assay: biochemical
Protocol: as §1
(i) Determination of prevention activity for fibrin decomposition
0.18 M borate-physiological salt buffer solution (pH = 7.4) to make the total volme to 600 pl. To this buffer solution, 200 µl of a 0.2% bovin fibrinogen, 100 µl of a 0.3 cassein unit/ml human […] solution, and 100 µl of a 50 unit/ml bovine thrombin solution, all dissolved in the above-mentioned buffer, are added at a temperature of 37°C in a constant temperature bath. Then, the dissolution time of the fibrin mass formed above is determined.

Plasmin [3] = molecular target: T1, Plasmin; assay: Antiplasmin activity: prevention of fibrinogen decomposition; format: biochemical; details: Table IV, present compounds, read-out: I50 Fibrinogen
Protocol: as §1
(iii) Determination of prevention activity for fibrinogen
An inhibitor sample is dissolved in a 0.18 M borate-physiological salt buffer solution (pH = 7.4) to make the total volume to 400 µl. To this solution, 500 pl of a 0.4% bovine fibrinogen solution and 100 pl of a 1 casein unit/ml human plasmin solution, all dissolved in the above-mentioned buffer are added at a temperature of 37°C in a constant temperature bath. After the mixture is allowed to stand at a temprature of 37°C for 10 minutes, 3800 µl of the above-mentioned buffer containing (3.2 mM of tranexamic acid and 200 µl of a 50 unit/ml bovine thrombin solution are added to terminate the reaction. The mixture is incubated at a temperature of 37°C for 15 minutes to precipitate the fibrin. The fibrin mass thus precipitated is adhered to or wound around a glass rod and is then washed with water. The amount of the remaining fibrinogen is determined according to a tyrosine coloring method using a phenol reagent (see J. Biol. Chem., 73, 627 (1927). From the amount of the remaining fibrinogen thus determined, the amount of decomposed fibrinogen is calculated. Thus, the concentration 150 of the inhibitor sample, at which the amount of decomposed fibrinogen is one half (i.e., 1/2) of that obtained in the absence of the inhibitor sample, is determined.

bovine thrombin [4] = molecular target: T2, bovine thrombin (Bos taurus, UniProt P00735); assay: Antithrombin activity: prevention of S-2238 decomposition; format: biochemical; details: Table III, known compounds of Table II; substrate S-2238; *1: 0% Inhibition at the given concentration; read-out: I50 Thrombin S-2238
Protocol: (§2) (2) Evaluation of Antithrombin Activity
(ii) Determination of prevention activity for S-2238 decomposition
An inhibitor sample is dissolved in a 0.05 M Tris-hydrochloric acid buffer solution (pH = 8.3) to make a total volume to 400 µl. To this solution, 50 µl of a […] S-2238 solution is added and the mixture is incubated at a temperature of 37°C for 5 minutes in a constant temperature bath. Then, 50 µl of a 0.2 unit/ml bovine thrombin solution is added thereto and the absorbance, at 405 nm, of the p-nitroaniline formed per minute is determined at a temperature of 37°C by using the so-called initial velocity method. Thus, the concentration 150 of the inhibitor sample at which the absorbance is one half (i.e., 1/2) of that obtained in the absence of the inhibitor, is determined.

bovine thrombin [5] = molecular target: T2, bovine thrombin; assay: Antithrombin activity: inhibition of fibrin formation from fibrinogen (coagulation time); format: biochemical; details: Table III, known compounds of Table II; coagulation time extended twice; *1: 0% Inhibition at the given concentration; read-out: I50 Thrombin Fibrinogen
Protocol: as §2
(i) Determination of inhibition activity against fibrin formation
An inhibitor sample is dissolved in a 0.18 M borate-physiological salt buffer solution (pH = 7.4) to make the total volume to 500 µl. To this solution, 400 µl of a 0.2% bovine fibrinogen solution and 100 µl of a 4 unit/ ml bovine thrombin solution are added at a temperature of 37°C in a constant temperature bath. Thus, a coagulation time is determined. The inhibitor concentraion I50, at which the coagulation time obtained in the absence of the inhibitor is extended twice, is determined.

bovine trypsin = molecular target: T3, bovine trypsin (Bos taurus, UniProt P00760); assay: Antitrypsin activity: inhibition of S-2238 decomposition; format: biochemical; details: Table III, known compounds of Table II; substrate S-2238; *1: 0% Inhibition at the given concentration; read-out: I50 Trypsin S-2238
T3 sequence (P00760 24-246): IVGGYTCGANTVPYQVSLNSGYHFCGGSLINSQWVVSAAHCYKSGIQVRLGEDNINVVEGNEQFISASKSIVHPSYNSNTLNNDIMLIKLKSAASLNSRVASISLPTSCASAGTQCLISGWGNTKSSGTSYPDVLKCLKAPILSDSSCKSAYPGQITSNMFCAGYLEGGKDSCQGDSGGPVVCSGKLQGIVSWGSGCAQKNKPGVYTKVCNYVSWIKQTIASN
Protocol: (3) Evaluation of Antitrypsin Activity
Determination of inhibition activity against S-2238 decomposition
An inhibitor sample is dissolved in a 0.05 M Tris-imidazole buffer solution (pH = 8.1) and 125 µl of a 1 mM S―2238 solution is added to make the total volume to 1.20 ml. The mixture is incubated at a temperature of 37°C for 5 minutes in a constant temperature bath. To this mixture, 0.05 ml of bovine trypsin is added and the absorbance, at 405 nm, of the p-nitroaniline formed per minute is determined at a temperature of 37°C by using the so-called initial velocity method. Thus, the concentration 15° of the inhibitor sample, at which the absorbance is one half (i.e., 1/2) of that obtained in the absence of the inhibitor, is determined.

human plasma kallikrein = human plasma kallikrein (Homo sapiens, UniProt P03952); assay: Anti-plasma kallikrein activity: prevention of S-2302 decomposition; format: biochemical; details: Table III, known compounds of Table II; substrate S-2302; *1: 0% Inhibition at the given concentration; read-out: I50 Plasma Kallikrein S-2302
Protocol: (4) Evaluation of Anti-Plasma Kallikrein Activity
Determination of prevention activity for S―2302 decomposition
An inhibitor sample is dissolved in a 0.05 M Tris-hydrochloric acid buffer solution (pH = 7.8) to make the total volume to 400 pl. To this solution, 50 pl of a 2 mM S-2302 solution is added and the mixture is incubated at a temperature of 37°C for 5 minutes in a constant temperature bath. Then, 50 µl of a 0.12 unit/ ml human plasma kallikrein is added and the mixture is incubated at a temperature of 37°C for 5 minutes. Thereafter, 50 pl of 50% acetic acid is added to terminate the reaction. The absorbance of the p-nitroaniline formed in the reaction mixture is measured at 405 nm. Thus, the concentration 150 of the inhibitor sample, at which the absorbance is one half (i.e., 1/2) of that obtained in the absence of the inhibitor sample, is determined.

human urokinase = human urokinase (Homo sapiens, UniProt P00749); assay: Antiurokinase activity: prevention of S-2444 decomposition; format: biochemical; details: Table III, known compounds of Table II; substrate S-2444; *1: 0% Inhibition at the given concentration; read-out: I50 Urokinase S-2444
Protocol: (5) Evaluation of Antiurokinase Activity
Determination of prevention activity for S-2444 decomposition
An inhibitor sample is dissolved in a 0.05 M Tris-hydrochloric acid buffer solution (pH = 8.8) to make the total volume to 400 pl. To this solution, 50 pl of a 1 mM S―2444 solution is added and the mixture is incubated at a temperature of 37°C for 5 minutes in a constant temperature bath. Then, 50 µl of a 500 unit/ ml human urokinase is added and the mixture is incubated at a temperature of 37°C for 5 minutes. Thereafter, 50 pl of 50% acetic acid is added to terminate the reaction. The absorbance of the p-nitroaniline formed in the reaction mixture is measured at 405 nm. Thus, the concentration 150 of the inhibitor sample, at which the absorbance is one half (i.e., 1/2) of that obtained in the absence of the inhibitor, is determined.

[6] = Table III, known compounds of Table II, *1: 0% Inhibition at the given concentration, read-out: I50 Plasmin S-2251
[7] = Table IV, present compounds, plasmin, read-out: I50 S-2251
[8] = Table IV, present compounds, plasmin, fibrin decomposition, read-out: I50 Fibrin
[9] = Table III, known compounds of Table II, fibrin dissolution time extended twice, *1: 0% Inhibition, *2: 19% Inhibition at the concentration, read-out: I50 Plasmin Fibrin

Sequence of human plasma kallikrein (P03952 391-638 limits assumed): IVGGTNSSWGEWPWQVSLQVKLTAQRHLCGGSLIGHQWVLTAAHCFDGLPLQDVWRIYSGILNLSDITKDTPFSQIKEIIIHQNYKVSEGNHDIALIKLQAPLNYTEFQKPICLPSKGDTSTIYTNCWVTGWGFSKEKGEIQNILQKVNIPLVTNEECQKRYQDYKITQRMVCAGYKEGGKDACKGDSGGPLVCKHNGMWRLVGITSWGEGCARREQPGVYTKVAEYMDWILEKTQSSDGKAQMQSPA
Sequence of human plasma kallikrein (P03952 20-390 partner limits assumed): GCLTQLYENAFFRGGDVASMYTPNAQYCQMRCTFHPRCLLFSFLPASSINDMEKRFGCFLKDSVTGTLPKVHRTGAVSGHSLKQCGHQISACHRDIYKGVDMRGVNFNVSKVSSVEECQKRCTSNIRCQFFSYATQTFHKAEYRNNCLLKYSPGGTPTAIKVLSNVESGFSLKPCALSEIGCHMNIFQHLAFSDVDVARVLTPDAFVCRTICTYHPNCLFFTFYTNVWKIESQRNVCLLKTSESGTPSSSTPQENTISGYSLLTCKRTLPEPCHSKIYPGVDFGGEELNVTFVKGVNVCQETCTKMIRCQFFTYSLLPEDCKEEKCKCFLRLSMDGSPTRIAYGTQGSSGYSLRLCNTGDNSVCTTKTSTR
T1 sequence (P00747 581-810 limits assumed): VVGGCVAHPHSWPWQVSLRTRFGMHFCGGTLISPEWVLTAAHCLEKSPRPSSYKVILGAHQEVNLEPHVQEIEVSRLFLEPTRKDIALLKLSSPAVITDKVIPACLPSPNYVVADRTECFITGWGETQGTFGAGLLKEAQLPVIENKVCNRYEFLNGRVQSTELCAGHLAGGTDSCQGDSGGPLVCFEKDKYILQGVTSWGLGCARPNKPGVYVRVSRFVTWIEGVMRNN
T1 sequence (P00747 97-580 partner limits assumed): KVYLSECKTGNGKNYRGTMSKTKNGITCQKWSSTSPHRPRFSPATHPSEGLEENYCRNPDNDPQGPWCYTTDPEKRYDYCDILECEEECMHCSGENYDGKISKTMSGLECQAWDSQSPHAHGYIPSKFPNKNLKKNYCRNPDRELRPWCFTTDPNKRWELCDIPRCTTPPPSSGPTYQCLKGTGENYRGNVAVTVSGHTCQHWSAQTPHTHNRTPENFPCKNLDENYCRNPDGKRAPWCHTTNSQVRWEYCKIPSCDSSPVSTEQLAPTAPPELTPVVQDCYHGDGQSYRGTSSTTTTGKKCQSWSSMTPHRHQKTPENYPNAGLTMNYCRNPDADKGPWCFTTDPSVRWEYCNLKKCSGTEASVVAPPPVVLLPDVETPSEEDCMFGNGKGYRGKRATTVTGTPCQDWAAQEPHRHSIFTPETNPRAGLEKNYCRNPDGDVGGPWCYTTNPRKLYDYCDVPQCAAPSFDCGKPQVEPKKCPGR

| pIC50 (Plasmin [1]; [7]) | pIC50 (Plasmin [2]; [8]) | SMILES | also measured |
| --- | --- | --- | --- |
| 3.19 | 3.27 | CCOC(=O)c1ccc(NC(=O)[C@H](CCCCN)NS(=O)(=O)c2ccc(C)cc2)cc1 [compound 33] |  |
| 3.43 | 3.72 | Cc1ccc(S(=O)(=O)N[C@@H](CCCCN)C(=O)Nc2ccc(Cl)c(Cl)c2)cc1 [compound 35] |  |
| 3.85 |  | Cc1ccc(S(=O)(=O)N[C@@H](CCCCN)C(=O)Nc2ccc(C(=O)c3ccccc3)cc2)cc1 [compound 36] | pIC50 (Plasmin [3]): 3.70 |
| 2.70 | 3.14 | CC1CCCN(C(=O)[C@H](CCCCN)NS(=O)(=O)c2cccc3c(N(C)C)cccc23)C1 (some centres unmarked) [compound 37] |  |
| 3.23 | 3.36 | CCOC(=O)c1c(C)cc(NC(=O)[C@H](CCCCN)NS(=O)(=O)c2ccc(C)cc2)cc1C [compound 40] |  |
| 3.64 |  | Cc1ccc(S(=O)(=O)N[C@@H](CCCCN)C(=O)Nc2cc(C)nc3ccccc23)cc1 [compound 42] |  |
| 3.89 |  | CN(C)c1cccc2c(S(=O)(=O)N[C@@H](CCCCN)C(=O)N3CCC(Cc4ccccc4)CC3)cccc12 [compound 48] |  |

Further lines, the compound ahead of its results:

| SMILES | pIC50 (Plasmin [1]; [7]) | pIC50 (Plasmin [2]; [8]) | also measured |
| --- | --- | --- | --- |
| Cc1ccc(S(=O)(=O)N[C@@H](CCCCN)C(=O)Nc2ccc([N+](=O)[O-])cc2)cc1 [Compound No. 3, N^2-(p-toluenesulfonyl)-L-lysine p-nitroanilide hydrochloride] | 3.15 | 3.11 | pIC50 (Plasmin [1]; [6]): 1.30; pIC50 (Plasmin [3]): 3.05 |
| NCCCCCC(=O)N[C@@H](CCCCN)C(=O)O [Compound No. 7] | 3.46 | 3.52 | pIC50 (Plasmin [1]; [6]): < 3.00; pIC50 (Plasmin [2]; [9]): < 3.00; pIC50 (bovine thrombin [4]): < 3.00; pIC50 (bovine thrombin [5]): < 3.00; pIC50 (bovine trypsin): < 3.70; pIC50 (human plasma kallikrein): < 3.00; pIC50 (human urokinase): < 3.00 |
| NCCCC[C@H](NC(=O)c1ccccc1)C(N)=O [Compound No. 8] | 3.60 | 3.85 | pIC50 (Plasmin [1]; [6]): < 3.00; pIC50 (Plasmin [2]; [9]): < 3.00; pIC50 (bovine thrombin [4]): < 3.00; pIC50 (bovine thrombin [5]): < 3.00; pIC50 (bovine trypsin): < 3.52; pIC50 (human plasma kallikrein): < 3.00; pIC50 (human urokinase): < 3.00 |
| NCCCC[C@H](NS(=O)(=O)c1cccc2ccccc12)C(=O)Nc1ccc([N+](=O)[O-])cc1 [Compound No. 10] | 2.77 | 3.51 |  |
| CCOC(=O)c1cc(NC(=O)[C@H](CCCCN)NS(=O)(=O)c2cccc3ccccc23)cc(C(=O)OCC)c1 [Compound No. 11] | 3.41 | 4.12 | pIC50 (Plasmin [3]): 4.10 |
| NCCCC[C@H](NS(=O)(=O)c1ccccc1)C(N)=O [compound 4] |  |  | pIC50 (Plasmin [1]; [6]): < 3.00; pIC50 (Plasmin [2]; [9]): < 3.00; pIC50 (bovine thrombin [4]): < 3.00; pIC50 (bovine thrombin [5]): < 3.00; pIC50 (bovine trypsin): < 3.82; pIC50 (human plasma kallikrein): < 3.00; pIC50 (human urokinase): < 3.00 |
| Cc1ccc(S(=O)(=O)N[C@@H](CCCCN)C(=O)O)cc1 [compound 5] |  |  | pIC50 (Plasmin [1]; [6]): 2.85; pIC50 (Plasmin [2]; [9]): 3.00 |
| Cc1ccc(S(=O)(=O)N[C@@H](CCCCN)C(=O)Nc2cccc(Cl)c2)cc1 [compound 18] | 3.22 | 3.46 |  |
| Cc1ccc(S(=O)(=O)N[C@H](CCCCN)C(=O)Nc2ccc(C(=O)c3ccccc3)cc2)cc1 [compound 20] | 2.70 | 3.00 |  |
| Cc1ccc(S(=O)(=O)N[C@@H](CCCCN)C(=O)N2CCC(Cc3ccccc3)CC2)cc1 [compound 21] | 3.52 | 3.82 |  |
| CCOC(=O)[C@H](NC(=O)[C@H](CCCCN)NS(=O)(=O)c1ccc(C)cc1)c1ccccc1 [compound 22] (Tos-Lys-[dPhg]-OEt) | 3.19 | 3.22 |  |
| Cc1ccc(S(=O)(=O)N[C@@H](CCCCN)C(=O)Nc2cccc(C#N)c2)cc1 [compound 29] | 3.32 | 3.47 |  |
| Cc1ccc(S(=O)(=O)N[C@@H](CCCCN)C(=O)Nc2ccc(Oc3ccccc3)cc2)cc1 [compound 31] | 3.11 | 3.82 |  |
| Cc1ccc(S(=O)(=O)N[C@@H](CCCCN)C(=O)Nc2ccc(C(F)(F)F)cc2)cc1 [compound 32] | 3.22 | 3.37 |  |
